# Assays:
# Assay in all cases: KINOMEscan Max
# Type in all cases: binding
# ACVR1B = ACVR1B (Homo sapiens, UniProt P36896)
# Summary of the method: (§1)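 Measures binding, not catalysis: three components (DNA-tagged kinase, immobilized active-site directed ligand, test compound) are combined, and competition is read out by quantitative PCR of the tag.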
# BIKE = molecular target: T1, BIKE (Homo sapiens, UniProt Q9NSY1)
# T1 construct: purchased Ambit (KINOMEscan Max service)
# Summary of the method: as §1
# BMPR1B = molecular target: T2, BMPR1B (Homo sapiens, UniProt O00238)
# T2 construct: DNA tag (qPCR label); purchased Ambit Kinomescan (contract screening)
# Summary of the method: as §1
# BRSK1 = molecular target: T3, BRSK1 (Homo sapiens, UniProt Q8TDC3)
# T3 construct: DNA tag (qPCR label); purchased Ambit Kinomescan (contract screening)
# Summary of the method: as §1
# CAMK2A = CAMK2A (Homo sapiens, UniProt Q9UQM7)
# Summary of the method: as §1
# CDKL3 = molecular target: T4, CDKL3 (Homo sapiens, UniProt Q8IVW4)
# T4 construct: purchased Ambit Kinomescan (contract screening)
# Summary of the method: as §1
# CDKL5 = molecular target: T5, CDKL5 (Homo sapiens, UniProt O76039)
# T5 construct: DNA tag (qPCR read-out)
# Summary of the method: as §1
# CSNK1G3 = CSNK1G3 (Homo sapiens, UniProt Q9Y6M4); details: 1 μM
# Summary of the method: as §1
# CSNK2A1 = molecular target: T6, CSNK2A1 (Homo sapiens, UniProt P68400)
# T6 construct: purchased Ambit (KINOMEscan Max panel service)
# Summary of the method: as §1
# EGFR(L858R.T790M) = molecular target: T7, EGFR(L858R.T790M) (Homo sapiens, UniProt P00533, L858R/T790M); details: 1 μM
# T7 construct: purchased Ambit (KINOMEscan Max panel service)
# Summary of the method: as §1
# EPHA6 = molecular target: T8, EPHA6 (Homo sapiens, UniProt Q9UF33)
# T8 construct: purchased Ambit (KINOMEscan Max panel service)
# Summary of the method: as §1
# EPHB4 = molecular target: T9, EPHB4 (Homo sapiens, UniProt P54760)
# T9 construct: purchased Ambit (KINOMEscan Max panel service)
# Summary of the method: as §1
# ERBB3 = molecular target: T10, ERBB3 (Homo sapiens, UniProt P21860)
# T10 construct: purchased Ambit (KINOMEscan Max service)
# Summary of the method: as §1
# GRK1 = GRK1 (Homo sapiens, UniProt Q15835)
# Summary of the method: as §1
# IRAK3 = molecular target: T11, IRAK3 (Homo sapiens, UniProt Q9Y616)
# T11 construct: purchased Ambit (KINOMEscan Max service)
# Summary of the method: as §1
# KIT(A829P) = molecular target: T12, KIT(A829P) (Homo sapiens, UniProt P10721, A829P)
# T12 construct: purchased Ambit Kinomescan (contract panel)
# Summary of the method: as §1
# LRRK2(G2019S) = molecular target: T13, LRRK2(G2019S) (Homo sapiens, UniProt Q5S007, G2019S)
# T13 construct: purchased Ambit (KINOMEscan Max service)
# Summary of the method: as §1
# LTK = molecular target: T14, LTK (Homo sapiens, UniProt P29376)
# T14 construct: purchased Ambit Kinomescan (contract panel)
# Summary of the method: as §1
# MEK2 = MEK2 (Homo sapiens, UniProt P36507)
# Summary of the method: as §1
# MET(M1250T) = molecular target: T15, MET(M1250T) (Homo sapiens, UniProt P08581, M1250T); details: 1 μM
# T15 construct: DNA tag (qPCR read-out)
# Summary of the method: as §1
# MKK7 = MKK7 (Homo sapiens, UniProt O14733); details: 1 μM
# Summary of the method: as §1
# PDPK1 = molecular target: T16, PDPK1 (Homo sapiens, UniProt O15530)
# T16 construct: purchased Ambit (KINOMEscan Max service)
# Summary of the method: as §1
# PFTAIRE2 = PFTAIRE2 (Homo sapiens, UniProt Q96Q40)
# Summary of the method: as §1
# PIK3CA = molecular target: T17, PIK3CA (Homo sapiens, UniProt P42336)
# T17 construct: DNA tag (qPCR read-out)
# Summary of the method: as §1
# PIK3CA(I800L) = molecular target: T18, PIK3CA(I800L) (Homo sapiens, UniProt P42336, I800L)
# T18 construct: DNA tag (qPCR read-out)
# Summary of the method: as §1
# PIP5K1C = PIP5K1C (Homo sapiens, UniProt O60331); details: 1 μM
# Summary of the method: as §1
# PKN1 = molecular target: T19, PKN1 (Homo sapiens, UniProt Q16512)
# T19 construct: DNA tag (qPCR read-out)
# Summary of the method: as §1
# PRKCH = molecular target: T20, PRKCH (Homo sapiens, UniProt P24723)
# T20 construct: DNA tag (qPCR read-out); purchased Ambit Kinomescan
# Summary of the method: as §1
# PRP4 = molecular target: T21, PRP4 (Homo sapiens, UniProt Q13523)
# T21 construct: purchased Ambit (KINOMEscan Max service)
# Summary of the method: as §1
# ROCK2 = molecular target: T22, ROCK2 (Homo sapiens, UniProt O75116)
# T22 construct: purchased Ambit (KINOMEscan Max service)
# Summary of the method: as §1
# SIK = molecular target: T23, SIK (Homo sapiens, UniProt P57059); details: 1 μM
# T23 construct: DNA tag (qPCR read-out)
# Summary of the method: as §1
# SNRK = molecular target: T24, SNRK (Homo sapiens, UniProt Q9NRH2)
# T24 construct: DNA tag (qPCR read-out)
# Summary of the method: as §1
# TIE1 = molecular target: T25, TIE1 (Homo sapiens, UniProt P35590)
# T25 construct: purchased Ambit Kinomescan (contract screening service)
# Summary of the method: as §1
# YES = molecular target: T26, YES (Homo sapiens, UniProt P07947)
# T26 construct: purchased Ambit Kinomescan (contract screening service)
# Summary of the method: as §1
# Chain of GRK1 (Q15835 whole entry): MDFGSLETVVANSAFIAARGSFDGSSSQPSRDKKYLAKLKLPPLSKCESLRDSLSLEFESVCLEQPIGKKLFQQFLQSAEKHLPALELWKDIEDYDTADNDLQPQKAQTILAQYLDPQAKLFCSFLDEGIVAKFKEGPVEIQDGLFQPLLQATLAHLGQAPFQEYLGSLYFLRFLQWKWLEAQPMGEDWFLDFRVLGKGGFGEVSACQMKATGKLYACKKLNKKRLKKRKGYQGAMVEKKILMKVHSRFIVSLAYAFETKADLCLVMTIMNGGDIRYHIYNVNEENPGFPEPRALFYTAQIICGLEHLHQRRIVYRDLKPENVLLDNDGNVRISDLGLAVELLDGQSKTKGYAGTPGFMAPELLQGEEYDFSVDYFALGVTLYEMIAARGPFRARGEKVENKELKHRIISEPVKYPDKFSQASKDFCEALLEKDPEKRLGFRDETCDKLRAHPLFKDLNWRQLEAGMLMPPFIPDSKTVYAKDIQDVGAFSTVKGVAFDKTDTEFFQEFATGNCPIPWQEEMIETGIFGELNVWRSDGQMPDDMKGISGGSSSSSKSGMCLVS
# Chain of PIP5K1C (O60331 whole entry): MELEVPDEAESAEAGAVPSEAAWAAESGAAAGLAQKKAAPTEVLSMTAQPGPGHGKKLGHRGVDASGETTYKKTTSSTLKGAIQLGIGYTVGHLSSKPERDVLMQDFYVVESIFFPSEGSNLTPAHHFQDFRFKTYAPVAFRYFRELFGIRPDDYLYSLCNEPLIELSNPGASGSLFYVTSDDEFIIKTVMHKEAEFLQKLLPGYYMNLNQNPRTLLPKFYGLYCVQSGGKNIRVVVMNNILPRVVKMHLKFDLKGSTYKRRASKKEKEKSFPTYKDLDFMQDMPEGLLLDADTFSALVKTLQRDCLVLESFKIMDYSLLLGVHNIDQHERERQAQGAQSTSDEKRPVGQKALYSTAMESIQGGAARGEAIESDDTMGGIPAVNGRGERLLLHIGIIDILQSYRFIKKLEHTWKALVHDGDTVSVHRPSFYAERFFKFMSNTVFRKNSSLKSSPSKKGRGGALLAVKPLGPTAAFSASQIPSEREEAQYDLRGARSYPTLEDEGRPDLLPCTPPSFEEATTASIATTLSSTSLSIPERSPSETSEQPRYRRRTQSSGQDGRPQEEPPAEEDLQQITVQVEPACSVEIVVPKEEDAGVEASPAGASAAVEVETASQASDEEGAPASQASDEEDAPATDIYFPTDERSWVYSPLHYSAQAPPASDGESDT
# Chain of ACVR1B (P36896 24-505): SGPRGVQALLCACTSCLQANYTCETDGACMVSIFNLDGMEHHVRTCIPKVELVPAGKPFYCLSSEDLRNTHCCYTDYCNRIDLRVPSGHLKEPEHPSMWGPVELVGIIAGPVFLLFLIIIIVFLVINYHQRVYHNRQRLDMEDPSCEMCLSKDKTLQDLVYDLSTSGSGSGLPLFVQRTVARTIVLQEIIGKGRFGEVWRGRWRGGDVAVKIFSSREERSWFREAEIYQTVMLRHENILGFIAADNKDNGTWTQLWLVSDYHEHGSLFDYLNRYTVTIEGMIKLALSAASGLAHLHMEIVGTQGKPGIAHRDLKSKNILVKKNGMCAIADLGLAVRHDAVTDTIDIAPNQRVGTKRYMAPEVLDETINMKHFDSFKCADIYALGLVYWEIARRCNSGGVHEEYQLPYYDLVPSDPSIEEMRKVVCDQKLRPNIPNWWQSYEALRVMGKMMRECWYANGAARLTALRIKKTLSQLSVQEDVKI
# T1 sequence (Q9NSY1 whole entry): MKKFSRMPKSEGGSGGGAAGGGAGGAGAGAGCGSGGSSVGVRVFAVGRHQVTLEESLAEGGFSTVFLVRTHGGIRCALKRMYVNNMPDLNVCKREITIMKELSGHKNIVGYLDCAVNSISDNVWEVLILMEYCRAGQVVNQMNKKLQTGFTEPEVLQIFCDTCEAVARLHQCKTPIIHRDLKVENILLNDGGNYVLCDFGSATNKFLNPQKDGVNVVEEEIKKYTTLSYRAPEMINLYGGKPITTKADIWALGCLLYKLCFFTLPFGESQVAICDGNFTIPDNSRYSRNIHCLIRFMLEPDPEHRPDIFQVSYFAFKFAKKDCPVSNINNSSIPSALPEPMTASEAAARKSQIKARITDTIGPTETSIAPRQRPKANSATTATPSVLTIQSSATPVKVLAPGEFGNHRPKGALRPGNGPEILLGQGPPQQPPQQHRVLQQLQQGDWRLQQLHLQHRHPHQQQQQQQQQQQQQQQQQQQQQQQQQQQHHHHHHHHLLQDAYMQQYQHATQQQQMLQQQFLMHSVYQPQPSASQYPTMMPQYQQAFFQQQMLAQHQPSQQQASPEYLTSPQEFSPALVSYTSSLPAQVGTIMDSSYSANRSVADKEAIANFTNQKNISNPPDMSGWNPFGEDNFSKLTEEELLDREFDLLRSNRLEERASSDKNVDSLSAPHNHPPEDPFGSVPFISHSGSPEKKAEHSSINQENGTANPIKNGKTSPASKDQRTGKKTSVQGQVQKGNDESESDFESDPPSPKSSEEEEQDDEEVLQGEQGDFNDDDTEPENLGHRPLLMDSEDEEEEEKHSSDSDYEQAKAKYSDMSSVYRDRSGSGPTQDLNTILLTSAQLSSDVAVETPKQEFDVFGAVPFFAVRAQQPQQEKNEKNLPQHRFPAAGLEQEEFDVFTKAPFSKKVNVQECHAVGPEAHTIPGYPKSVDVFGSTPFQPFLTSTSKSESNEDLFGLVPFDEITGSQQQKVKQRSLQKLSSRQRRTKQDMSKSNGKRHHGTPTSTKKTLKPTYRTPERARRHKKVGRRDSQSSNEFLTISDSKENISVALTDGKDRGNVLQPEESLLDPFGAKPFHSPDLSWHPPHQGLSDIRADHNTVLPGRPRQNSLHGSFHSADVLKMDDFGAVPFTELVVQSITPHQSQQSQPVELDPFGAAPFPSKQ
# T19 sequence (Q16512 whole entry): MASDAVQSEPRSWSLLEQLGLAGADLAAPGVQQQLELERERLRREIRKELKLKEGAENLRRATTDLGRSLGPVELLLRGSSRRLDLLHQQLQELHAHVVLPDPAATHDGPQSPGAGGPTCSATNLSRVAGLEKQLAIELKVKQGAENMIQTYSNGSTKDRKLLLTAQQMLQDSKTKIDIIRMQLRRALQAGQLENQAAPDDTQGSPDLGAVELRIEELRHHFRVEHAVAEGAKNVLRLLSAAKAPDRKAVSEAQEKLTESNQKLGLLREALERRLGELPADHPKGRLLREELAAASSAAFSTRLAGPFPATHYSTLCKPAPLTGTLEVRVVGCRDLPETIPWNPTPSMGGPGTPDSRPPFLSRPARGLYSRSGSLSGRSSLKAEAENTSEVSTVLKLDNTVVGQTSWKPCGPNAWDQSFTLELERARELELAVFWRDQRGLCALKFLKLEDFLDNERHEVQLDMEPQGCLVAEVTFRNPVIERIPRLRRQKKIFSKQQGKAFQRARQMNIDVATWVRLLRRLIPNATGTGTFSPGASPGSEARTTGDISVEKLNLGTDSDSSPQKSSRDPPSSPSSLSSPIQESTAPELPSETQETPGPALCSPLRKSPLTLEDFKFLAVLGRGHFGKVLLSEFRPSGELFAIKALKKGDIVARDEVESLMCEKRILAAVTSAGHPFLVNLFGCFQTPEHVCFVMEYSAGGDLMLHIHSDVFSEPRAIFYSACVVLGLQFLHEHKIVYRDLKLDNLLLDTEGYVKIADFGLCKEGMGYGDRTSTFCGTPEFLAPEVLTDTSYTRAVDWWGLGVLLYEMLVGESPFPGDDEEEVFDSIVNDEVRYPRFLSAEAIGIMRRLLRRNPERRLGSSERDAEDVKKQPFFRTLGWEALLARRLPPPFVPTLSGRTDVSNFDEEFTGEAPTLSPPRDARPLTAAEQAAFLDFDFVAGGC
# Chain of CSNK1G3 (Q9Y6M4 whole entry): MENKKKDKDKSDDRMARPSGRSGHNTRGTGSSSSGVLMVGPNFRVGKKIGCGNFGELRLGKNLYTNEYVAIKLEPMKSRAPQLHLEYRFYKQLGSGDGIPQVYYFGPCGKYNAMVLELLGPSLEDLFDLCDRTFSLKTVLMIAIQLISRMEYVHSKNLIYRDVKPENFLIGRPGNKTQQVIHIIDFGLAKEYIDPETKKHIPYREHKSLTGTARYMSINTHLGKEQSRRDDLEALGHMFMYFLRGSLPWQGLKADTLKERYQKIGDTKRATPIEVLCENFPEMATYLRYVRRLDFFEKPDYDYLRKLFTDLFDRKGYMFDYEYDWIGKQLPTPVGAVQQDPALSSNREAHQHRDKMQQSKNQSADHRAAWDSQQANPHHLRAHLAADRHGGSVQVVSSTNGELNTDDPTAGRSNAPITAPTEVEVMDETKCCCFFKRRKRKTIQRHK
# T20 sequence (P24723 whole entry): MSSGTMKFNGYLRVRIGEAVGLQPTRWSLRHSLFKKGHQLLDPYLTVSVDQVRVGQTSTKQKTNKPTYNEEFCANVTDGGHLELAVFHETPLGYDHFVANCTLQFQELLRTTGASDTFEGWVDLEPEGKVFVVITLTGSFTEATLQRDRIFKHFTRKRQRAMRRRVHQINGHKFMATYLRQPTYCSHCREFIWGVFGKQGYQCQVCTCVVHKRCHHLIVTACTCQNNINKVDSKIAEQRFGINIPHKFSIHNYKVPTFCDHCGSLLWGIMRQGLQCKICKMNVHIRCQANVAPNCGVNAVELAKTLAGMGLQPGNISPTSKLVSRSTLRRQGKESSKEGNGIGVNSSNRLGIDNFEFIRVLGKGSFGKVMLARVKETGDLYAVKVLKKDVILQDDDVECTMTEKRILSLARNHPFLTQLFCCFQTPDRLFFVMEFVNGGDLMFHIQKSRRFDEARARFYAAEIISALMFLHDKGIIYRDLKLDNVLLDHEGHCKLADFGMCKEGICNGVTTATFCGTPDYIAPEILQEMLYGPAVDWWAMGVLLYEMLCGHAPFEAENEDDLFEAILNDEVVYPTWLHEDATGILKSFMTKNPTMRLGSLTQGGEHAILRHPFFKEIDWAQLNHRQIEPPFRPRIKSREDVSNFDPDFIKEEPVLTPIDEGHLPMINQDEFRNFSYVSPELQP
smiles,measurement,setting,value
"NCCCNc1nc2c(Br)c(Br)c(Br)c(Br)c2[nH]1 [Compound 11, N-(3-aminopropyl)-4,5,6,7-tetrabromo-1H-benzo[d]imidazol-2-amine]",remaining binding at 1 µM,ACVR1B,100%
same,remaining binding at 1 µM,BIKE,60%
same,remaining binding at 1 µM,BMPR1B,100%
same,remaining binding at 1 µM,BRSK1,100%
same,remaining binding at 1 µM,CAMK2A,96%
same,remaining binding at 1 µM,CDKL3,98%
same,remaining binding at 1 µM,CDKL5,25%
same,% binding,CSNK1G3,92%
same,remaining binding at 1 µM,CSNK2A1,100%
same,% binding,EGFR(L858R.T790M),100%
same,remaining binding at 1 µM,EPHA6,100%
same,remaining binding at 1 µM,EPHB4,100%
same,remaining binding at 1 µM,ERBB3,68%
same,remaining binding at 1 µM,GRK1,96%
same,remaining binding at 1 µM,IRAK3,86%
same,remaining binding at 1 µM,KIT(A829P),100%
same,remaining binding at 1 µM,LRRK2(G2019S),70%
same,remaining binding at 1 µM,LTK,100%
same,remaining binding at 1 µM,MEK2,100%
same,% binding,MET(M1250T),56%
same,% binding,MKK7,100%
same,remaining binding at 1 µM,PDPK1,84%
same,remaining binding at 1 µM,PFTAIRE2,73%
same,remaining binding at 1 µM,PIK3CA,100%
same,remaining binding at 1 µM,PIK3CA(I800L),100%
same,% binding,PIP5K1C,95%
same,remaining binding at 1 µM,PKN1,100%
same,remaining binding at 1 µM,PRKCH,23%
same,remaining binding at 1 µM,PRP4,84%
same,remaining binding at 1 µM,ROCK2,71%
same,% binding,SIK,100%
same,remaining binding at 1 µM,SNRK,100%
same,remaining binding at 1 µM,TIE1,100%
same,remaining binding at 1 µM,YES,100%

# Reference: patent US20110230481A2, “DERIVATIVES OF TETRABROMOBENZIMIDAZOLE, A PROCESS FOR THE PREPARATION THEREOF, A PHARMACEUTICAL COMPOSITION COMPRISING THE SAME, A METHOD OF USING THE SAME, A METHOD FOR MODULATING OR REGULATING SERINE/THREONINE KINASES, AND SERINE/THREONINE KINASES MODULATING AGENT” (SELVITA S.A., priority 2009, published 2011)
